Experimental findings from BindingDB's records for doi:10.1021/jm960288w (Drew University, 1997) are described below.

This test is described as follows: Compound was tested for inhibition of [3H]WIN-35428 binding at the dopamine transporter in brain from guinea pig striatal membrane.

As to `OC1(c2ccc(Cl)cc2)c2ccccc2C2=NCCCCN21` (configuration not stated) [7-(4-Chloro-phenyl)-2,4,5,7-tetrahydro-3H-[1,3]diazepino[2,1-a]isoindol-7-ol], the half-maximal inhibitory concentration (IC50) was found to be 2.7 nM.
As for `OC1(c2ccc(Cl)cc2)c2ccccc2C2=NCCCN21` (configuration not stated) [9-(4-Chloro-phenyl)-1,2,3,9-tetrahydro-4,9a-diaza-fluoren-9-ol], the figure is 4.2 nM.

By IC50 is commonly meant the midpoint of a concentration-inhibition curve.
